Activity calls are given as the source filed them. The rule behind the calls is not given here.
Legend:
Assay type in all cases: nucleic-acid assay
Nucleic Acid [1] = experiment: Induction of thermal cleavage in alpha satellite DNA 5'-GAAACT-3' in […] at 10 uM at 25 degC after 17 hrs by non-denaturating gel electrophoresis
Nucleic Acid [2] = experiment: Binding affinity to alpha satellite DNA assessed as neucleosome reconstitution after 17 hrs at 25 degC by non-denaturating gel electrophoresis
Nucleic Acid [3] = experiment: Induction of thermal cleavage in protein free alpha satellite DNA 5'-GAAACT-3' at 10 uM at 25 degC after 17 hrs by non-denaturating gel electrophoresis
Nucleic Acid [4] = experiment: Induction of thermal cleavage in protein free alpha satellite DNA 5'-GGAAAC-3' at 10 uM at 25 degC after 17 hrs by non-denaturating gel electrophoresis
Nucleic Acid [5] = experiment: Induction of thermal cleavage in protein free alpha satellite DNA 5'-CAAAAG-3' at 10 uM at 25 degC after 1 hr by non-denaturating gel electrophoresis
Nucleic Acid [6] = experiment: Induction of thermal cleavage in alpha satellite DNA 5'-GGAAAC-3' in […] at 10 uM at 25 degC after 17 hrs by non-denaturating gel electrophoresis
Nucleic Acid [7] = experiment: Induction of thermal cleavage in alpha satellite DNA 5'-CAAAAG-3' in […] at 10 uM at 25 degC after 17 hrs by non-denaturating gel electrophoresis
Nucleic Acid [8] = experiment: Induction of DNA alkylation-mediated […] at 25 degC after 16 hrs by non-denaturating gel electrophoresis
Nucleic Acid [9] = experiment: Induction of thermal cleavage in alpha satellite DNA at 10 uM at 25 degC after 30 mins by non-denaturating gel electrophoresis
Nucleic Acid [10] = experiment: Induction of thermal cleavage in alpha satellite DNA at 10 uM at 25 degC after 1 hr by non-denaturating gel electrophoresis

COc1cc2[nH]c(C(=O)N3C[C@@H]4C[C@]45C3=CC(=O)c3[nH]c(C(=O)N4CCc6c4c(O)c(OC)c4[nH]c(C(=O)SC)cc64)cc35)cc2cc1O
Activity (Nucleic Acid [1]): Active | Activity (Nucleic Acid [2]): Active | Activity (Nucleic Acid [3]): Active | Activity (Nucleic Acid [4]): Active

COc1cc2[nH]c(C(=O)N3C[C@H]4C[C@@]45C3=CC(=O)c3[nH]c(C(=O)N4CCc6c4c(O)c(OC)c4[nH]c(C(=O)SC)cc64)cc35)cc2cc1O
Activity (Nucleic Acid [2]): Active | Activity (Nucleic Acid [5]): Active | Activity (Nucleic Acid [6]): Active | Activity (Nucleic Acid [7]): Active | Activity (Nucleic Acid [4]): Active | Activity (Nucleic Acid [8]): Active

COC(=O)c1cc2c([nH]1)C(=O)C=C1N(C(=O)c3cc4cc(OC)c(OC)c(OC)c4[nH]3)C[C@H]3C[C@]123
Activity (Nucleic Acid [9]): 1 ×10⁻⁵ M | Activity (Nucleic Acid [2]): Active | Activity (Nucleic Acid [10]): Active | Activity (Nucleic Acid [4]): Active
